This note sets out measurements from ChEMBL document CHEMBL3137667, “[Drug-induced liver injury; fourteenth updated edition of the bibliographic database of liver injuries and related drugs]” (Gastroenterol Clin Biol, 2004).

A short description of series [1]: Highest frequency of moderate liver toxicity observed during clinical trials, expressed as a percentage. [column '% BIOL' in source]. Particulars: human.
The nature of series [2]: Highest frequency of acute liver toxicity observed during clinical trials, expressed as a percentage. [column '% AIGUE' in source]. The conditions noted are these: human.
The nature of series [3]: Times to onset, minimal and maximal, observed in the indexed observations. [column 'DELAI' in source]. Particulars: human.
For series [4] the following is noted: human, serum.
For series [5] the following is noted: human, serum. This is another data set of the same source.
For series [6] the following is noted: human.
The conditions of series [7]: human. The source holds these as a separate data set.
The conditions of series [8]: human. This is another data set of the same source.
The conditions of series [9]: human, serum, 4383 h.
For series [10] the following is noted: human. This is another data set of the same source.
For series [11] the following is noted: human. This is another data set of the same source.
For series [12] the following is noted: human. The source holds these as a separate data set.
For series [13] the following is noted: human. The source holds these as a separate data set.
For series [14] the following is noted: human. The source holds these as a separate data set.
For series [15] the following is noted: human. This is another data set of the same source.
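Throughout, for Hepatotoxicity (association with vascular disease): count of indexed literature references reporting vascular liver injury in humans, e.g. peliosis hepatitis, hepatic veno-occlusive disease or Budd-Chiari syndrome.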
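Throughout, for Hepatotoxicity (benign tumour): value is a count of indexed literature references citing a benign tumour confirmed by histopathology.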
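Throughout, for Hepatotoxicity (choleostasis): human cholestatic liver injury, shown by histopathology or by peak ALT or AST elevation over alkaline phosphatase ratio below 2, value counts indexed literature reports.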
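Throughout, for Hepatotoxicity (chronic liver disease): chronic liver injury confirmed by histopathology or persistently raised serum aminotransferase activity beyond 6 months, value given as the count of indexed literature references.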
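Throughout, for Hepatotoxicity (cirrhosis): value is a count of indexed literature references reporting cirrhosis confirmed by histopathology.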
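Throughout, for Hepatotoxicity (cytolytic): human cytolytic liver injury, shown by histopathology or by a ratio above 5 of peak ALT or AST elevation to alkaline phosphatase elevation, value counts indexed references.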
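Throughout, for Hepatotoxicity (granulomatous hepatitis): value is a count of indexed literature references reporting granulomatous liver disease confirmed by histopathology.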
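Throughout, for Hepatotoxicity (malignant tumour): malignant tumour confirmed by histopathology, value gives the count of indexed literature references reporting it.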
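Throughout, for Hepatotoxicity (severe hepatitis): human clinical data: severe hepatitis, meaning potentially life-threatening liver failure or clinically observed cases, the value counts how many indexed literature references report it.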
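Throughout, for Hepatotoxicity (steatosis): steatosis confirmed by histopathology, value is the count of indexed references.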

In the case of `COCCCOc1ccnc(C[S+]([O-])c2nc3ccccc3[nH]2)c1C` (stereo not given) [RABEPRAZOLE], the “Hepatotoxicity (moderate)” value is listed as 0% in [1] and 0 in series [4]. Moreover, the “Hepatotoxicity (acute)” value in series [2] was found to be 0%; in series [5] it was 1. In addition, the “Hepatotoxicity (time to onset)” value in series [3] was found to be 4 weeks. For the same compound, the “Hepatotoxicity (cytolytic)” value in series [6] amounted to 1. For the same compound, the “Hepatotoxicity (choleostasis)” value in [7] is 0. Further, the “Hepatotoxicity (severe hepatitis)” value in series [8] stood at 1. Also, the “Hepatotoxicity (chronic liver disease)” value in series [9] is on record as 0. For the same compound, in series [10], the “Hepatotoxicity (cirrhosis)” value was 0. Besides, in series [11], the “Hepatotoxicity (granulomatous hepatitis)” value is recorded as 0. For the same compound, in series [12], the “Hepatotoxicity (association with vascular disease)” value was 0. Moreover, in [13], the “Hepatotoxicity (steatosis)” value came to 0. Also, the “Hepatotoxicity (malignant tumour)” value in [14] was 0. The “Hepatotoxicity (benign tumour)” value in series [15] worked out at 0.

Consider `CCN1CCC[C@H]1CNC(=O)c1c(O)c(Cl)cc(Cl)c1OC` [RACLOPRIDE], for which the “Hepatotoxicity (moderate)” value in series [1] was 2.2%; in series [4], 1. Moreover, the “Hepatotoxicity (acute)” value is 0% in series [2] and 0 in series [5]. Moreover, the “Hepatotoxicity (time to onset)” value in [3] is 1 week - 2 weeks. The “Hepatotoxicity (cytolytic)” value in series [6] was 0. Besides, in [7], the “Hepatotoxicity (choleostasis)” value is reported as 0. The “Hepatotoxicity (severe hepatitis)” value in series [8] was determined as 0. For the same compound, the “Hepatotoxicity (chronic liver disease)” value in series [9] stood at 0. In series [10], the “Hepatotoxicity (cirrhosis)” value is reported as 0. Further, in [11], the “Hepatotoxicity (granulomatous hepatitis)” value is listed as 0. Also, the “Hepatotoxicity (association with vascular disease)” value in series [12] was found to be 0. Further, the “Hepatotoxicity (steatosis)” value in [13] amounted to 0. Also, in series [14], the “Hepatotoxicity (malignant tumour)” value is 0. In addition, the “Hepatotoxicity (benign tumour)” value in series [15] amounted to 0.

`CC(=O)OCC(=O)NCCCOc1cccc(CN2CCCCC2)c1` [ROXATIDINE ACETATE]: the “Hepatotoxicity (moderate)” value amounted to 0.4% in series [1] and 2 in series [4]. Further, the “Hepatotoxicity (acute)” value in series [2] came out at 0.5%; in [5], 1. Also, the “Hepatotoxicity (time to onset)” value in [3] was determined as 4 weeks. The “Hepatotoxicity (cytolytic)” value in [6] came to 0. In addition, the “Hepatotoxicity (choleostasis)” value in series [7] is 0. Besides, the “Hepatotoxicity (severe hepatitis)” value in [8] came to 0. The “Hepatotoxicity (chronic liver disease)” value in series [9] came out at 0. Further, the “Hepatotoxicity (cirrhosis)” value in series [10] is given as 0. In addition, the “Hepatotoxicity (granulomatous hepatitis)” value in [11] is on record as 0. The “Hepatotoxicity (association with vascular disease)” value in [12] was 0. For the same compound, in series [13], the “Hepatotoxicity (steatosis)” value is on record as 0. In [14], the “Hepatotoxicity (malignant tumour)” value was 0. Further, in [15], the “Hepatotoxicity (benign tumour)” value came out at 0.

Turning to `CC[C@H]1OC(=O)[C@H](C)[C@@H](O[C@H]2C[C@@](C)(OC)[C@@H](O)[C@H](C)O2)[C@H](C)[C@@H](O[C@@H]2O[C@H](C)C[C@H](N(C)C)[C@H]2O)[C@](C)(O)C[C@@H](C)/C(=N\OCOCCOC)[C@H](C)[C@@H](O)[C@]1(C)O` [ROXITHROMYCIN], the “Hepatotoxicity (moderate)” value came to 22.6% in [1] and 38 in series [4]. Besides, the “Hepatotoxicity (acute)” value in series [2] stood at 0%; in series [5] it was 10. For the same compound, the “Hepatotoxicity (time to onset)” value in series [3] was 4 days - 10 months. In [6], the “Hepatotoxicity (cytolytic)” value is 7. Besides, the “Hepatotoxicity (choleostasis)” value in [7] was 6. In series [8], the “Hepatotoxicity (severe hepatitis)” value came out at 2. The “Hepatotoxicity (chronic liver disease)” value in series [9] is on record as 0. The “Hepatotoxicity (cirrhosis)” value in [10] was 0. In addition, in series [11], the “Hepatotoxicity (granulomatous hepatitis)” value is recorded as 0. Further, in [12], the “Hepatotoxicity (association with vascular disease)” value is listed as 0. Also, the “Hepatotoxicity (steatosis)” value in series [13] came out at 0. Also, the “Hepatotoxicity (malignant tumour)” value in [14] stood at 0. Also, the “Hepatotoxicity (benign tumour)” value in [15] was 0.

For `O=C(Oc1ccccc1C(=O)O)c1ccccc1O` [SALSALATE], the results for the “Hepatotoxicity (moderate)” value in series [1] and in series [4] were 15% and 1, respectively. Moreover, the “Hepatotoxicity (acute)” value is recorded as 5% in [2] and 2 in series [5]. In [3], the “Hepatotoxicity (time to onset)” value was found to be 1 day - 2 weeks. Besides, the “Hepatotoxicity (cytolytic)” value in series [6] amounted to 2. Also, the “Hepatotoxicity (choleostasis)” value in series [7] worked out at 0. In addition, the “Hepatotoxicity (severe hepatitis)” value in series [8] worked out at 0. Also, in series [9], the “Hepatotoxicity (chronic liver disease)” value is given as 0. Besides, the “Hepatotoxicity (cirrhosis)” value in [10] was determined as 0. In series [11], the “Hepatotoxicity (granulomatous hepatitis)” value came out at 0. For the same compound, the “Hepatotoxicity (association with vascular disease)” value in [12] is listed as 0. For the same compound, the “Hepatotoxicity (steatosis)” value in series [13] turned out to be 0. For the same compound, the “Hepatotoxicity (malignant tumour)” value in [14] was determined as 0. The “Hepatotoxicity (benign tumour)” value in series [15] is 0.

Turning to `FCOC(C(F)(F)F)C(F)(F)F` [SEVOFLURANE], the figures for the “Hepatotoxicity (moderate)” value in [1] and in [4] were 40% and 4, respectively. Also, the entries for the “Hepatotoxicity (acute)” value in series [2] and in series [5] were 0% and 6, respectively. The “Hepatotoxicity (time to onset)” value in series [3] was found to be 1 day - 11 days. Moreover, the “Hepatotoxicity (cytolytic)” value in series [6] is 6. Also, the “Hepatotoxicity (choleostasis)” value in series [7] is given as 0. Moreover, the “Hepatotoxicity (severe hepatitis)” value in series [8] was found to be 2. Besides, the “Hepatotoxicity (chronic liver disease)” value in [9] was determined as 0. In series [10], the “Hepatotoxicity (cirrhosis)” value was determined as 0. Further, in [11], the “Hepatotoxicity (granulomatous hepatitis)” value is recorded as 0. The “Hepatotoxicity (association with vascular disease)” value in [12] came out at 0. In addition, in series [13], the “Hepatotoxicity (steatosis)” value was 0. The “Hepatotoxicity (malignant tumour)” value in [14] was found to be 0. In addition, in [15], the “Hepatotoxicity (benign tumour)” value is reported as 0.

With `CC(C)NCC(O)c1ccc(NS(C)(=O)=O)cc1` (stereo not given) [SOTALOL], the entries for the “Hepatotoxicity (moderate)” value in [1] and in series [4] were 0% and 0, respectively. Further, the “Hepatotoxicity (acute)” value in series [2] was found to be 0%; in series [5], 1. Besides, the “Hepatotoxicity (time to onset)” value in series [3] is 10 months. For the same compound, the “Hepatotoxicity (cytolytic)” value in series [6] came out at 1. In addition, the “Hepatotoxicity (choleostasis)” value in series [7] is 0. In addition, the “Hepatotoxicity (severe hepatitis)” value in [8] is on record as 0. The “Hepatotoxicity (chronic liver disease)” value in series [9] was 1. Further, the “Hepatotoxicity (cirrhosis)” value in [10] was 0. In addition, the “Hepatotoxicity (granulomatous hepatitis)” value in series [11] is on record as 0. Also, the “Hepatotoxicity (association with vascular disease)” value in [12] turned out to be 0. Further, in series [13], the “Hepatotoxicity (steatosis)” value is on record as 0. Moreover, the “Hepatotoxicity (malignant tumour)” value in [14] is listed as 0. The “Hepatotoxicity (benign tumour)” value in series [15] is reported as 0.

`CN[C@@H]1[C@H](O)[C@H](NC)[C@H]2O[C@@]3(O)C(=O)C[C@@H](C)O[C@H]3O[C@@H]2[C@H]1O` [SPECTINOMYCIN]: the “Hepatotoxicity (moderate)” value in [1] stood at 0%; in series [4], 1. The “Hepatotoxicity (acute)” value worked out at 0% in series [2] and 1 in series [5]. Further, the “Hepatotoxicity (time to onset)” value in series [3] worked out at 3 days. Moreover, the “Hepatotoxicity (cytolytic)” value in [6] was 0. The “Hepatotoxicity (choleostasis)” value in [7] was found to be 1. Also, the “Hepatotoxicity (severe hepatitis)” value in series [8] was 0. In addition, the “Hepatotoxicity (chronic liver disease)” value in series [9] is listed as 0. In [10], the “Hepatotoxicity (cirrhosis)” value was found to be 0. Besides, the “Hepatotoxicity (granulomatous hepatitis)” value in [11] came out at 0. Besides, the “Hepatotoxicity (association with vascular disease)” value in series [12] is 0. Also, the “Hepatotoxicity (steatosis)” value in series [13] was 0. The “Hepatotoxicity (malignant tumour)” value in series [14] worked out at 0. For the same compound, in series [15], the “Hepatotoxicity (benign tumour)” value was found to be 0.
